Assays:
[1] = target: T1, Serine/threonine-protein kinase TAO1 (Homo sapiens) (UniProt Q7L7X3); test: Inhibition of human partial length wild type TAOK1 at 1 uM by Kinomescan method relative to control
T1 sequence (whole entry): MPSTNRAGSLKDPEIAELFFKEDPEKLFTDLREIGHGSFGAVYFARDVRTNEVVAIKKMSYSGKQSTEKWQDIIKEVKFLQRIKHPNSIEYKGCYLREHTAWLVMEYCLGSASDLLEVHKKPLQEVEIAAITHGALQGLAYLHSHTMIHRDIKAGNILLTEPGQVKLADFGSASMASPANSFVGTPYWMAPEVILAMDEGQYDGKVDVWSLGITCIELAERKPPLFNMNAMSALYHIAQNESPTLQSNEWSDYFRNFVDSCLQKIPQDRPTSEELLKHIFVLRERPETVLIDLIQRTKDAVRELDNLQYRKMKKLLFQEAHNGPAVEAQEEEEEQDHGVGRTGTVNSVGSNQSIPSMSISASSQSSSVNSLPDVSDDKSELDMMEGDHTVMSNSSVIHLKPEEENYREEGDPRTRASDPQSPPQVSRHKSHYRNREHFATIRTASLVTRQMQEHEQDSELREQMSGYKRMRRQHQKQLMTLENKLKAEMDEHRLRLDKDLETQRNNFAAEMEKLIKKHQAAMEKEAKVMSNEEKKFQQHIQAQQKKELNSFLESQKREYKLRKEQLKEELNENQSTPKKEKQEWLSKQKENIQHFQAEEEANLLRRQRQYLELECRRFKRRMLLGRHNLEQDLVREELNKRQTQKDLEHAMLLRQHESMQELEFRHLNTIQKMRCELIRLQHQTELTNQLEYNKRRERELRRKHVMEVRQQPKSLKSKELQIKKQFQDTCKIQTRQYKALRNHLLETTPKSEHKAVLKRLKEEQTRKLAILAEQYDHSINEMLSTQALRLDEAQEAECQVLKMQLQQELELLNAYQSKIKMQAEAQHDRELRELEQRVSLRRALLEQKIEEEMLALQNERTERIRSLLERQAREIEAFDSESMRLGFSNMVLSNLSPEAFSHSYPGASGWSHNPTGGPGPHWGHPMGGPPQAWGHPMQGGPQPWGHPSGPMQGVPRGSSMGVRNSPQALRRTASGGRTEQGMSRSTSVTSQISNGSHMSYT

[2] = system: HCT-116; test: Antitumor activity against human HCT-116 cells xenografted in nude mouse assessed as reduction in tumor growth at 60 mg/kg, sc bid administered at 5 on/5 off/8 for 18 days; format: functional; details: time 18 day
[3] = AUClast in Sprague-Dawley rat at 1 mg/kg, iv; format: ADME, organism-based; parameters: time 0 - last, dose 1 mg/kg, route iv; details: in vivo
[4] = Volume of distribution at steady state in Sprague-Dawley rat at 1 mg/kg, iv; format: ADME, organism-based; details: in vivo, read-out: Vdss
[5] = Observed AUCinfinity in Sprague-Dawley rat at 1 mg/kg, iv; format: ADME, organism-based; parameters: time infinity, dose 1 mg/kg, route iv; details: in vivo
[6] = system: RKO; test: Antiproliferative activity against human RKO cells assessed as cell growth inhibition measured after 72 hrs by SRB assay; format: functional, cell-based
[7] = system: MV4-11; test: Antiproliferative activity against human MV4-11 cells assessed as cell growth inhibition measured after 72 hrs by SRB assay; format: functional, cell-based; details: MV4-11, 72 h
[8] = system: HT-29; test: Antiproliferative activity against human HT-29 cells assessed as cell growth inhibition measured after 72 hrs by SRB assay; format: functional, cell-based; details: HT-29, 72 h
[9] = Clearance in Sprague-Dawley rat at 1 mg/kg, iv; format: ADME, organism-based; details: in vivo
[10] = system: DU-145; test: Antiproliferative activity against human DU-145 cells assessed as cell growth inhibition measured after 72 hrs by SRB assay; format: functional, cell-based; details: DU-145, 72 h
[11] = Observed MRTinfinity in Sprague-Dawley rat at 1 mg/kg, iv; format: ADME, organism-based; details: in vivo
[12] = system: CAPAN-1; test: Antiproliferative activity against human CAPAN-1 cells assessed as cell growth inhibition measured after 72 hrs by SRB assay; format: functional, cell-based; details: CAPAN-1, 72 h
[13] = system: THP-1; test: Antiproliferative activity against human THP-1 cells assessed as cell growth inhibition measured after 72 hrs by SRB assay; format: functional, cell-based; details: THP-1, 72 h
[14] = system: HCT-116; test: Antiproliferative activity against human HCT-116 cells assessed as cell growth inhibition by sulforhodamine B assay; format: functional, cell-based
[15] = target: Voltage-gated inwardly rectifying potassium channel KCNH2 (Homo sapiens, UniProt Q12809); test: Inhibition of hERG channel; format: toxicity
Sequence of Voltage-gated inwardly rectifying potassium channel KCNH2 (Q12809 whole entry): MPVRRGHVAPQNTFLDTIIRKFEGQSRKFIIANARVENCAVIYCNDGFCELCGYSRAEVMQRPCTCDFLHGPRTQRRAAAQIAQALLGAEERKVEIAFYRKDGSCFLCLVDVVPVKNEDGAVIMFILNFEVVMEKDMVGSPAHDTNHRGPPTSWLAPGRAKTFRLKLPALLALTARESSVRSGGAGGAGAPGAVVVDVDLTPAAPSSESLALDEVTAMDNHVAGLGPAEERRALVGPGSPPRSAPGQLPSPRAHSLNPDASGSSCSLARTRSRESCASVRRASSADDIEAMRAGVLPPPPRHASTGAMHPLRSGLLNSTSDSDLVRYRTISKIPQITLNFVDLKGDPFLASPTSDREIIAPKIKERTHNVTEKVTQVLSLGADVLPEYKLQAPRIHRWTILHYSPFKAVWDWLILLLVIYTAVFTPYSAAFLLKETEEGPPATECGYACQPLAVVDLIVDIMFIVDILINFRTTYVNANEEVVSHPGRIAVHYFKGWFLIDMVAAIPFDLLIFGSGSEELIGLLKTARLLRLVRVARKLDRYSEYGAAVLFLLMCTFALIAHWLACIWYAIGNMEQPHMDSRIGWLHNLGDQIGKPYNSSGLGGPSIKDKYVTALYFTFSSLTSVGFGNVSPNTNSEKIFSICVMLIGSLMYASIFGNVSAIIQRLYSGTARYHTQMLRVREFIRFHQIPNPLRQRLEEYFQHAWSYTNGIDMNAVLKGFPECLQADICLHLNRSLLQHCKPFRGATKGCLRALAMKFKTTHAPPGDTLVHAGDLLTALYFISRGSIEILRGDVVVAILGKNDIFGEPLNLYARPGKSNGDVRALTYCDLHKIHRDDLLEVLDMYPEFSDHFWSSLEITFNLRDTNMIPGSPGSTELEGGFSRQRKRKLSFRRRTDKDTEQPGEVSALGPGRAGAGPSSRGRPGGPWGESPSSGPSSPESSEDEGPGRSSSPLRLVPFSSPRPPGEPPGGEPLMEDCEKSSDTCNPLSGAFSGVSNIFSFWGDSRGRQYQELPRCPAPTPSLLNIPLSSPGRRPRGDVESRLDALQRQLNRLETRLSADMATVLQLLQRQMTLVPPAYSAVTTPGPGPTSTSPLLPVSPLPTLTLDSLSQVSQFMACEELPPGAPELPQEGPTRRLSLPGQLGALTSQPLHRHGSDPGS

[16] = system: HuTu80; test: Antiproliferative activity against human HuTu80 cells assessed as cell growth inhibition measured after 72 hrs by SRB assay; format: functional, cell-based; details: HuTu80, 72 h
[17] = Toxicity in nude mouse xenografted with human HCT-116 cells assessed as effect on body weight at 60 mg/kg, sc bid administered at 5 on/5 off/8 for 18 days; format: organism-based; details: in vivo, 432 h, time 18 day
[18] = target: T1, Serine/threonine-protein kinase TAO1 (Homo sapiens); test: Inhibition of human partial length wild type TAOK1 by measuring selectivity score at 1 uM by Kinomescan method relative to control
[19] = system: LNCaP-Clone-FGC; test: Antiproliferative activity against human LNCaP-Clone-FGC cells assessed as cell growth inhibition measured after 72 hrs by SRB assay; format: functional, cell-based
[20] = system: HCT-116; test: Antiproliferative activity against human HCT-116 cells assessed as cell growth inhibition measured after 72 hrs by SRB assay; format: functional, cell-based; details: HCT-116, 72 h
[21] = system: Jurkat; test: Antiproliferative activity against human Jurkat cells assessed as cell growth inhibition measured after 72 hrs by SRB assay; format: functional, cell-based
[22] = Inhibition of UAE (unknown origin) […] assessed as decrease in UbcH10-Ub adduct formation incubated for 2 hrs in presence of L-glutathione and ATP by HTRF assay; parameters: species or system Homo sapiens
[23] = Half life in Sprague-Dawley rat at 1 mg/kg, iv; format: ADME, organism-based; details: in vivo

Question: For NS(=O)(=O)OC[C@@H]1C[C@@H](n2ccc3c(N[C@H]4CCc5ccccc54)ncnc32)C[C@@H]1O [PEVONEDISTAT], which inhibition [1] is on record?
Answer: Its inhibition is 35%.

Question: And the T/C [2]?
Answer: Its T/C is 0.1.

Question: What about the AUC(0-t) [3] of the same molecule?
Answer: The AUC(0-t) was 1330 ng·h/mL.

Question: And the Vd [4]?
Answer: The Vd was 1.63 L/kg.

Question: And the AUC(0-inf) [5]?
Answer: Its AUC(0-inf) is 1340 ng·h/mL.

Question: And the IC50 [6]?
Answer: The IC50 was 166 nM.

Question: And the IC50 [7]?
Answer: Its IC50 is 107 nM.

Question: And the IC50 [8]?
Answer: The IC50 was 484 nM.

Question: What about the clearance [9] of the same molecule?
Answer: The clearance was 16.5 mL/min/kg.

Question: What about the IC50 [10] of the same molecule?
Answer: The IC50 was 201 nM.

Question: What about the MRT inf [11] of the same molecule?
Answer: Its MRT inf is 1.9 h.

Question: What about the IC50 [12] of the same molecule?
Answer: The IC50 was 101 nM.

Question: What about the IC50 [13] of the same molecule?
Answer: Its IC50 is 115 nM.

Question: What about the IC50 [14] of the same molecule?
Answer: Its IC50 is 33.9 nM.

Question: What about the IC50 [15] of the same molecule?
Answer: Its IC50 is greater than 40000 nM.

Question: What about the IC50 [16] of the same molecule?
Answer: Its IC50 is 42.6 nM.

Question: And the Activity [17]?
Answer: Its Activity is “Non-Toxic”.

Question: What about the Activity [18] of the same molecule?
Answer: Its Activity is 0.002.

Question: What about the IC50 [19] of the same molecule?
Answer: The IC50 was 64.6 nM.

Question: What about the IC50 [20] of the same molecule?
Answer: Its IC50 is 36.2 nM.

Question: And the IC50 [21]?
Answer: Its IC50 is 152 nM.

Question: What about the IC50 [22] of the same molecule?
Answer: Its IC50 is 3.72 nM.

Question: And the half-life [23]?
Answer: The half-life was 1.36 h.

Source: ChEMBL document CHEMBL5149982, “Development of Potent NEDD8-Activating Enzyme Inhibitors Bearing a Pyrimidotriazole Scaffold” (J Med Chem, 2021)
